From patent publication US20240382487A1, “NOVEL COPI/ARF1-LIPOLYSIS PATHWAY INHIBITOR AND COMPOUND FOR ERADICATING CANCER STEM CELLS AND INDUCING DAMP-MEDIATED ANTI-TUMOR IMMUNE RESPONSE” (FUDAN UNIVERSITY, priority 2020, published 2024)

Tests used:
[1] = test system: lung cancer cells A549; assay: In vitro cell line screening, A549; assay type: cell-based
Excerpt: (§1) In different tumor cytotoxicity experiments in vitro (FIG. 2-FIG. 7), including colorectal cancer cell lines HT29 and LoVo cells, liver cancer cell Huh7, lung cancer cells H460 and A549, the arf1 inhibitor could all inhibit tumor cell growth (FIG. 2-FIG. 6), and there was a dose-dependent manner (FIG. 7).

[2] = test system: colorectal cancer cell line HT29; assay: In vitro cell line screening, HT29; assay type: cell-based
Excerpt: as §1

[3] = test system: lung cancer cells H460; assay: In vitro cell line screening, H460; assay type: cell-based
Excerpt: as §1

[4] = test system: colorectal cancer cell line LoVo; assay: In vitro cell line screening, LoVo; assay type: cell-based
Excerpt: as §1

[5] = test system: liver cancer cell Huh7; assay: In vitro cell line screening, Huh7; assay type: cell-based
Excerpt: as §1

[6] = test system: tumor cells; assay: Tumor cytotoxicity experiments in vitro (all lines, general statements); assay type: cell-based; details: HT29, LoVo, Huh7, H460, A549; FIG. 2-7
Excerpt: as §1

[7] = test system: mice; assay: Toxicity in mice, oral gavage; assay type: in vivo
[8] = test system: normal human bone marrow hematopoietic stem cells (HSCs); assay: Toxicity on normal hematopoietic stem cells
Excerpt: (§2) We tested 10 reported Arf1 inhibitors (Bill et al., 2011; Boal et al., 2010; Feng et al., 2004; Newton et al., 2006; Ohashi et al., 2012; Sáenz et al., 2009; Sorieul et al., 2011; Viaud et al., 2007), including brefeldin A (BFA), Golgicide A (GCA), LM11, Secin16, Secin H3, Secin B7, Exo1, Exo2, LG8, and LG18, on Drosophila stem cell tumors and normal human bone marrow hematopoietic stem cells (HSCs).

[9] = biological target: T1, Arf1 (Homo sapiens, UniProt P84077); assay: Active Arf1 Pull-Down and Detection Kit (GTP-bound Arf1); assay type: biochemical; details: liver cancer Huh-7 cell lysate; FIG. 1
T1 construct: Active Arf1 was detected by using The Thermo Scientific Pierce Active Arf1 Pull-Down and Detection Kit (Cat #16121) with liver cancer Huh-7 cell lysate; endogenous in cells; host or cells: Huh-7 liver cancer cells (lysate)
Excerpt: Active Arf1 was detected by using The Thermo Scientific Pierce Active Arf1 Pull-Down and Detection Kit (Cat #16121) with liver cancer Huh-7 cell lysate. It is a complete kit for selective enrichment and detection of GTP-bound Arf1 GTPase through specific protein interaction with the GGA3 protein-binding domain (FIG. 1).

[10] = test system: Drosophila stem cell tumors; assay: Drosophila screen (stem cell / intestinal tumors); assay type: in vivo
Excerpt: as §2

[11] = test system: liver tumors in MYC-ON mice; assay: MYC-ON liver tumor model; assay type: in vivo; details: gavage, 5 per week for 4 weeks, analyzed 10 weeks later
Excerpt: We used the Tet system to generate transgenic mice conditionally expressing the myc pro-oncogene in hepatocytes, […] myc/lap TTA (lt2-myc) (shachaf et al., 2004). We crossed tre-myc mice with a transgenic line, lap TTA. in which the liver activator protein (LAP) promoter drives the expression of tetracycline trans-activator protein (TTA) in hepatocytes. We confirmed this by discontinuing the feeding of doxycycline (myc-ON) activated myc transgene expression in 3-week-old mice. Subsequently. all transgenic mice overexpressing myc succumbed to liver tumors with a mean latency to tumor onset of 12 weeks, as previously reported (shachaf et al., 2004). In this lap TTA/tet-off myc conditional transgenic mouse model, myc overexpression in adult mice reproducibly induces liver cancer, similar to hepatocellular carcinoma and/or hepatoblastoma. The transgenic tumor invades the entire liver locally and is frequently associated with malignant peritoneal effusions that spread to the thoracic cavity by metastasis and invade the lung parenchyma.
For the mouse liver tumor model, mating cages and weaning cages were administrated by a grain based rodent diet (Bio-Serv. Cat #14-727-450) containing 200 mg/kg doxycycline, and the mice were induced tumors at 6 weeks of age, by changing to a normal diet. Mice were divided into three groups, control, Du 101 treated and du102 treated. The control group was given 100 by gavage using a feeding tube 100 μl/10 g body weight (BW) 20% DMSO+80% corn oil. Du 101 treated groups were treated with 25 mg/ml Du 101. The stock solution was diluted 1:4 with corn oil to make the working solution. Dul02 treatment groups were treated with 25 mg/ml du102 stock solution diluted 1:4 with corn oil to make working solutions. The mixed working solution was administered to mice by gavage using a feeding tube. Starting from the second week of myc-0n, 5 injections per week ([…]) were given for 4 weeks, mice were monitored every 2 days, and 10 weeks later mice were euthanized and analyzed for tumor growth.
For the myc-on liver tumor model, antibodies were i.p. Mg/kg) was injected once a week for 5 consecutive weeks, the first Doxycycline was discontinued weekly after injection. Antibodies used to treat mice were as follows: anti-CD4 (clone GK1.5, BioXcell, Cat #BE0003-1), anti-CD8 a (clone 2.43, BioXcell, Cat #BE0061) Or […] rat IgG (bioxcell, cat #be0094) isotype control antibody. From the second week of myc-on initiation lasted for 4 weeks, Du 102 and DMSO were administered by gavage needle as described above, mice were monitored every 2 days, and 10 weeks later mice were euthanized and analyzed for tumor growth.
For the myc-on liver tumor model, antibodies were i.p. Injection once a week for 5 weeks, and doxycycline was discontinued weekly after the first injection. Antibodies used to treat mice were as follows: 100 ug/mouse Armenian hamster anti mouse PD1 (J43, bioxcell, cat #be0033-2) and 100 ug/mouse Armenian hamster isotype IgG (bioxcell. cat #bp0091) was used as controls. For 4 weeks from the second week of myc-on, Du 102 and DMSO were administered by gavage needle as described above, mice were monitored every 2 days. and 10 weeks later mice were euthanized and analyzed for tumor growth. Coadministration of anti-PD-1 antibodies may allow the use of lower, less toxic doses of du102, thus avoiding known side effects.

T1 sequence (P84077 whole entry): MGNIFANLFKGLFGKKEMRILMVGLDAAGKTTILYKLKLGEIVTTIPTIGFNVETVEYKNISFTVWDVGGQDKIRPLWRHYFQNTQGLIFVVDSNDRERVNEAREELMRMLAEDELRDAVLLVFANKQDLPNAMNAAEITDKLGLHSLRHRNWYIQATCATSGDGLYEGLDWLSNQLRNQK

Row | Structure (SMILES) | tumor suppressive effect [1] | tumor suppressive effect [2] | tumor suppressive effect [3] | tumor suppressive effect [4] | tumor suppressive effect [5] | tumor suppressive / inhibitory effect on tumor cells [6] | toxic effects ([7]; oral gavage for 60 consecutive days, FIG. 10) | toxic effects ([7]; up to 50 mg/kg by oral gavage for 21 consecutive days, FIG. 9) | toxicity (killing normal HSCs) [8] | inhibition of arf1 activation [9] | in vivo tumor suppressive effects ([10]; Drosophila screen, FIG. 8) | killing Drosophila stem cell tumors ([10]; in vivo) | liver tumor numbers [11]
1 | C(=C\c1ccccc1)/Cc1cccc2c1C1=C(CCCCCC1)C2 [compound 109] | effective tumor suppressive effects | effective tumor suppressive effects | effective tumor suppressive effects | effective tumor suppressive effects | effective tumor suppressive effects |  |  |  |  |  |  |  | 
2 | Cc1ccc(/C=C/Cc2cccc3c2C2=C(CCCC2)C3)cc1C [compound 104] | effective tumor suppressive effects | effective tumor suppressive effects | effective tumor suppressive effects | effective tumor suppressive effects | effective tumor suppressive effects |  |  |  |  |  |  |  | 
3 | C1=Cc2cc(/C=C/Cc3cccc4c3C3=C(CCCC3)C4)ccc2C1 [compound 107] | effective tumor suppressive effects | effective tumor suppressive effects | effective tumor suppressive effects | effective tumor suppressive effects | effective tumor suppressive effects |  |  |  |  |  |  |  | 
4 | C(=N\Nc1ncnc2sc3c(c12)CCCC3)/c1ccc2[nH]ccc2c1 [Du 101] |  |  |  |  |  | Some Tumor Suppressive Effect | induced toxic effects | no toxic effects were observed | relatively low toxicity | potent inhibitors | good in vivo tumor suppressive effects | effective | 44.7
